Assay results from patent US12441733B2, “Substituted 2,4-dioxotetrahydropyrimidines as intermediates in the synthesis of bruton's tyrosine kinase inhibitors” (Novartis AG, priority 2018, dated 2025).

Biological target: T1, IKZF3-GFP (Homo sapiens, UniProt Q96SW2+Q9UKT9)
T1 construct: expressed in transfected cells; host or cells: HEK293A (Invitrogen R70507), lentiviral transduction with pLenti6-IKZF3-GFP-Ires-RFP, blasticidin selection
Assay: IKZF3-GFP protein abundance flow cytometry assay in HEK293A cells
Assay type: cell-based
Settings: HEK293A IKZF3-GFP-iresRFP cells, 24 h; for DC50: GFP signal by flow cytometry; for IKZF3 deg Amax: % protein remaining at maximum degradation
Procedure: BTK-GFP and IKZF3-GFP protein abundance flow cytometry assay in HEK293A cells:
Degradation of BTK or IKZF3 was measured in HEK293A cells (Invitrogen R70507) expressing either BTK-GFP and RFP or IKZF3-GFP and RFP from a stably integrated bicistronic BTK-GFP-iresRFP or IKZF3-GFP-iresRFP construct, respectively. Reduction of the GFP signal measured by flow cytometry served as readout for BTK or IKZF3 degradation after degrader treatment.
By analogy the bicistronic pLenti6-IKZF3-GFP-iresRFP was engineered by gateway cloning of IKZF3 from a pENTR221-IKZF3(STOP-Leu) construct into the previously described pLenti6-DEST-GFP-Ires-RFP vector using the LR Clonase kit (Invitrogen 11791-019) according to the manufacturer's manual. All vectors described have been sequenced for verification.
ii) Engineering of Stably Expressing 293A BTK-GFP-Ires-RFP and IKZF3-GFP-Ires-RFP Sensor Cells
293A BTK-GFP-Ires-RFP and IKZF3-GFP-ires-RFP sensor cells were generated by lentiviral vector transduction using the pLenti6-BTK-GFP-Ires-RFP or pLenti6-IKZF3-GFP-Ires-RFP sensor construct described before. Lentiviral particles were produced in HEK293FT cells (Invitrogen R70007) by co-transfection of 500 ng pLenti6-BTK-GFP-ires-RFP or pLenti6-IKZF3-GFP-Ires-RFP, 500 ng delta8.71 and 200 ng pVSVG diluted in 100 μl OptiMEM serum free medium (Invitrogen #11058-021) that was mixed after 5 min preincubation with 3 μl of Lipofectamine2000 (Invitrogen #11668-019) in 97 μl OptiMEM serum free medium. The mix was incubated for another 20 min at RT and then added on 1 ml of a freshly prepared suspension of HEK293FT cells in a well of a 6-well plate (concentration 1.2×10^6 cells/ml). 1 day after transfection, the medium was replaced with 1.5 ml of complete growth medium (DMEM high Glucose+10% FCS+1% L-Glutamine+1% NEAA+1% NaPyr.). 48 h post transfection supernatant containing viral transducing particles was collected and frozen at −80° C.
Two days before transduction with viral particles 1×10^5 HEK293A cells (Invitrogen R70507) were seeded in 2 ml growth medium in a well of a 6-well plate. Infection was performed with 90 μl of collected supernatant containing viral transducing particles in 1 ml medium including 8 μg/ml polybrene. 24 h post infection, stably transfected cells were selected with blasticidin at a concentration of 8 μg/ml.
Iii) Quantitative BTK-GFP and IKZF3-GFP Abundance Measurements
Stable HEK293A-BTK-GFP-iresRFP cells were maintained in complete growth medium (DMEM high Glucose+10% FCS+1% L-Glutamine+1% NEAA+1% NaPyr.) with passaging performed twice per week. On Day 0, HEK293A-BTK-GFP-iresRFP or HEK293A-IKZF3-GFP-iresRFP and HEK293A-iresRFP cells were seeded at 10,000 cells/well in a 96-well microtiter plate in 260 μl complete medium. On Day 1, cells were treated in duplicate with 10-point 1:3 dilution series of compound using the HP D300 Digital Dispenser (Tecan). DMSO concentrations were normalized across the plate to 0.1%. On Day 2, after 24 h of incubation at 37° C., treatment media was discarded, cells rinsed with 100 μl/well PBS and then detached using 40 μl trypsin/well for 5 min. Trypsin was neutralized with 100 μl/well PBS+20% FCS). Flow cytometry was performed on the samples using the BD FACS CANTO II (Becton Dickinson). Cell identification was then performed using forward (FSC) vs. side scatter (SSC) plots. […] Median GFP values for 5,000 single cells are used to determine BTK levels. Median GFP values from HEK293A-iresRFP are used as a background signal and thus defining 0% BTK signal. Median GFP values from DMSO treated HEK293A-BTK-GFP-iresRFP or HEK293A-IKZF3-GFP-iresRFP are used to define 100% BTK signal for subsequent DC50 curves (concentration at 50% BTK degradation).

T1 sequence (Q9UKT9 whole entry): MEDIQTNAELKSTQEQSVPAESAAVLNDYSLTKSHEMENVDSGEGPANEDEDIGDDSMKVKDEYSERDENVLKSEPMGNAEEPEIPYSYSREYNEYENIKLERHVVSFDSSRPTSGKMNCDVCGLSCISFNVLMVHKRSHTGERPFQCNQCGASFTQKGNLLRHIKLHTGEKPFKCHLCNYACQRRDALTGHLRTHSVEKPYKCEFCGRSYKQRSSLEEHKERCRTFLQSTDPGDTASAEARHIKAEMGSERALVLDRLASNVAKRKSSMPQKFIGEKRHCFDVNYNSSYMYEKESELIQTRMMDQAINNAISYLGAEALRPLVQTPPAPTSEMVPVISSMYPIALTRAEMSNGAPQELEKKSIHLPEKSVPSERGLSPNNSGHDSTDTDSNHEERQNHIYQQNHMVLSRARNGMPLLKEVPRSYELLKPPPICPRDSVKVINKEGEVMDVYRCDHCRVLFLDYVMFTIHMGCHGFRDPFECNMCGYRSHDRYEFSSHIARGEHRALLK
T1 sequence (Q96SW2 whole entry): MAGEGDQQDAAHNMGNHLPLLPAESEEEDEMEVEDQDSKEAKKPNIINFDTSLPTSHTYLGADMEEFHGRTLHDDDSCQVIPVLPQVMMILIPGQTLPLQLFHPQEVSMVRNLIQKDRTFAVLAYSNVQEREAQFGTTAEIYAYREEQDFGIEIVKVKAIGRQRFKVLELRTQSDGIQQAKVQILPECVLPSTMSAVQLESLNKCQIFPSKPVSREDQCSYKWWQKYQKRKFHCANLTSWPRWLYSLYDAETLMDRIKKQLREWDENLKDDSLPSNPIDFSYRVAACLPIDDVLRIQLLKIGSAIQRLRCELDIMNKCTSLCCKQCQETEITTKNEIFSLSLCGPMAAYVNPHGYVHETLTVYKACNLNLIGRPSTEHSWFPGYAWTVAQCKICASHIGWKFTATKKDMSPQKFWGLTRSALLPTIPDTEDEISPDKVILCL
T1 sequence (Q16531 whole entry partner): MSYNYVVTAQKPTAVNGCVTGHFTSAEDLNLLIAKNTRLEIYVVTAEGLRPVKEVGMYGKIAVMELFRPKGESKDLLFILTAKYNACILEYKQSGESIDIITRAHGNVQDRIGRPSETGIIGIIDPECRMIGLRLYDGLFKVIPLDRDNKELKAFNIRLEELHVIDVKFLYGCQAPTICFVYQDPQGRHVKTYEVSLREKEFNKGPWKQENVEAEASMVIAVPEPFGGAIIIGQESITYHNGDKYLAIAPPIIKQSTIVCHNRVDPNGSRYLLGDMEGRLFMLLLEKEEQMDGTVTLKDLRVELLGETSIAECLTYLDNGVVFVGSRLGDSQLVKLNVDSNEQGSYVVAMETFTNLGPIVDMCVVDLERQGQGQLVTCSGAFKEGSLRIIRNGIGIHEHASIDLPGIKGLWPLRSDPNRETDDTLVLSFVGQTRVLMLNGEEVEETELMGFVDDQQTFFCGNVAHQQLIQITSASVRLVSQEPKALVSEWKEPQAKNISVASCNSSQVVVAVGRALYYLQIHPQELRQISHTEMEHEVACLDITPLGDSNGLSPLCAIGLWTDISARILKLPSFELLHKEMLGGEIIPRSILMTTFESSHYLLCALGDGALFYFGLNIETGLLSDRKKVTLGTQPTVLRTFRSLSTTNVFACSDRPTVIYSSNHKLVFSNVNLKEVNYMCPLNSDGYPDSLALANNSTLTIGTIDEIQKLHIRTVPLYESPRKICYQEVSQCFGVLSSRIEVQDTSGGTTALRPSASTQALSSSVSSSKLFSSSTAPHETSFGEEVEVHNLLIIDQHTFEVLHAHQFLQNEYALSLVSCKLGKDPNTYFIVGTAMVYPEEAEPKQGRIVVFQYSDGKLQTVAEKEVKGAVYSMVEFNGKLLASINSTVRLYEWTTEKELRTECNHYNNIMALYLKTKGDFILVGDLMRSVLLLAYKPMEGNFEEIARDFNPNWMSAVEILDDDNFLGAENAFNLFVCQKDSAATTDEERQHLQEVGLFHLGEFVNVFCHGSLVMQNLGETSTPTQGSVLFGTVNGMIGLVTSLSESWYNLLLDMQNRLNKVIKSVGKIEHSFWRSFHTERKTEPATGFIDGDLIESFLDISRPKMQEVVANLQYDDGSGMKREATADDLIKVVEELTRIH

Row | Compound | DC50 [µM] | IKZF3 deg Amax [%]
1 | Cc1ccc(C(=O)N(C)CCCCCNCc2ccc(-c3cc4c(-c5cc(F)cc(NC(=O)c6ccc(C(C)(C)O)cc6F)c5C)ncnc4[nH]3)cc2)cc1N1CCC(=O)NC1=O [Compound 30, 3-(2,4-Dioxotetrahydropyrimidin-1(2H)-yl)-N-(5-((4-(4-(5-fluoro-3-(2-fluoro-4-(2-hydroxypropan-2-yl)benzamido)-2-methylphenyl)-7H-pyrrolo[2,3-d]pyrimidin-6-yl)benzyl)amino)pentyl)-N,4-dimethylbenzamide] | > 3.3 | 101.1
2 | COc1ccc(C(=O)N2CCC3(CCN(CCc4ccc(-c5cc6c(-c7cc(F)cc(NC(=O)c8ccc(C(C)(C)O)cc8F)c7C)ncnc6[nH]5)cc4)CC3)CC2)cc1N1CCC(=O)NC1=O [Compound 31, N-(3-(6-(4-(2-(9-(3-(2,4-Dioxotetrahydropyrimidin-1(2H)-yl)-4-methoxybenzoyl)-3,9-diazaspiro[5.5]undecan-3-yl)ethyl)phenyl)-7H-pyrrolo[2,3-d]pyrimidin-4-yl)-5-fluoro-2-methylphenyl)-2-fluoro-4-(2-hydroxypropan-2-yl)benzamide] | > 5.5 | 99.8
3 | COc1ccc(C(=O)N2CCC(OC3CCN(CCc4ccc(-c5cc6c(-c7cc(F)cc(NC(=O)c8ccc(C(C)(C)O)cc8F)c7C)ncnc6[nH]5)cc4)CC3)CC2)cc1N1CCC(=O)NC1=O [Compound 34, N-(3-(6-(4-(2-(4-((1-(3-(2,4-Dioxotetrahydropyrimidin-1(2H)-yl)-4-methoxybenzoyl)piperidin-4-yl)oxyl)piperidin-1-yl)ethyl)phenyl)-7H-pyrrolo[2,3-d]pyrimidin-4-yl)-5-fluoro-2-methylphenyl)-2-fluoro-4-(2-hydroxypropan-2-yl)benzamide] | > 10 | 94.7
4 | COc1ccc(C(=O)NCCN2CCOC3(CCN(Cc4ccc(-c5cc6c(-c7cc(F)cc(NC(=O)c8ccc(C(C)(C)O)cc8F)c7C)ncnc6[nH]5)cc4)CC3)C2)cc1N1CCC(=O)NC1=O [Compound 39, N-(3-(6-(4-((4-(2-(3-(2,4-dioxotetrahydropyrimidin-1(2H)-yl)-4-methoxybenzamido)ethyl)-1-oxa-4,9-diazaspiro[5.5]undecan-9-yl)methyl)phenyl)-7H-pyrrolo[2,3-d]pyrimidin-4-yl)-5-fluoro-2-methylphenyl)-2-fluoro-4-(2-hydroxypropan-2-yl)benzamide] | > 10 | 94.5
5 | COc1ccc(C(=O)NCCN2CCC3(CC2)CCN(Cc2ccc(-c4cc5c(-c6cc(F)cc(NC(=O)c7ccc(C(C)(C)O)cc7F)c6C)ncnc5[nH]4)cc2)CC3)cc1N1CCC(=O)NC1=O [Compound 44, N-(3-(6-(4-((9-(2-(3-(2,4-dioxotetrahydropyrimidin-1(2H)-yl)-4-methoxybenzamido)ethyl)-3,9-diazaspiro[5.5]undecan-3-yl)methyl)phenyl)-7H-pyrrolo[2,3-d]pyrimidin-4-yl)-5-fluoro-2-methylphenyl)-2-fluoro-4-(2-hydroxypropan-2-yl)benzamide] | > 3.3 | 99.7
6 | Cc1c(NC(=O)c2ccc(C(C)(C)O)cc2F)cc(F)cc1-c1ncnc2[nH]c(-c3ccc(CCN4CCC5(CC4)CCN(C(=O)c4ccc(F)c(N6CCC(=O)NC6=O)c4)CC5)cc3)cc12 [Compound 47, N-(3-(6-(4-(2-(9-(3-(2,4-dioxotetrahydropyrimidin-1(2H)-yl)-4-fluorobenzoyl)-3,9-diazaspiro[5.5]undecan-3-yl)ethyl)phenyl)-7H-pyrrolo[2,3-d]pyrimidin-4-yl)-5-fluoro-2-methylphenyl)-2-fluoro-4-(2-hydroxypropan-2-yl)benzamide] | > 1.1 | 99.7
